Starred links: 1 amine or outer side, 2 acyl side, 3 side chain; linkers in the order of their positions; H or OH if unused. Positions of bridges follow the written chain, without caps; N, C: chain ends. Residues, ends and D or L forms follow the SMILES beside them. *: point of attachment. C18 diacid = O=C(O)CCCCCCCCCCCCCCCCC(=O)*; γGlu = O=C(O)[C@H](CCC(=O)[*:2])N[*:1]; X1 = O=C(CCCCCCCCCCCCCCCCc1nnn[nH]1)*; AEEA = NCCOCCOCC(=O)O
assay: Thioflavin T (ThT) assay: lagtime and peptide recovery; format: physicochemical; settings: ThT assay, pH 6.5, 37° C.; assay terminated after 45 hours
Text: The ThT assay was used to evaluate physical stability of the CNP compounds and their suitability for liquid formulation. Low physical stability of peptides may lead to amyloid fibril formation, which is observed as well-ordered, thread-like macromolecular structures in the sample eventually resulting in gel formation. This has traditionally been tested by visual inspection of the sample. However, that kind of measurement is very subjective and depending on the observer. Therefore, the application of a small molecule indicator probe is much more advantageous. Thioflavin T (ThT) is such a probe and has a distinct fluorescence signature when binding to fibrils [Naiki et al. (1989) Anal. Biochem. 177, 244-249; LeVine (1999) Methods. Enzymol. […], 274-284].
Procedure: Thioflavin T was added to the supernatant samples from Example 5 (pH 4.0 and 6.5) using an aqueous ThT stock solution to a final concentration of about 1 μM in the samples. Sample aliquots of 150 μL were placed in a 96 well microtiter plate (Packard OptiPlate™-96, white polystyrene). Usually, two to three replicas of each sample were applied to the plate. The plate was sealed and placed in a fluorescence plate reader (Fluoroskan Ascent FL) and incubated at 37° C. with orbital shaking (960 rpm; 1 mm amplitude). Fluorescence measurements were performed every 20 minutes using excitation through a 444 nm filter and measurement of emission through a 485 nm filter. Between each measurement, the plate was shaken and heated as described above and the assay was terminated after 45 hours. Fluorescence measurements for each microtiter plate well were plotted against time and the lag-time (time until an increase in ThT fluorescence was observed) was estimated.
To assess loss of dissolved peptide following 45h incubation, peptide recovery was measured as the ratio between total peak area after incubation vs. before incubation using the RP-UPLC method described below.
Measurement of LagTime and Peptide recovery % using RP-UPLC: RP-UPLC was conducted using an Acquity UPLC BEH C18 1.7 μm (2.1×30 mm) Waters column (Eluent A: 0.1% v/v % TFA in water; Eluent B: 0.1% v/v TFA in acetonitrile/water 4:1) with gradient elution (0 min: 95% A; 2 min: 20% A; 2.3 min: 20% A; 2.4 min: 95% A; 9 min: 95% A) in a flow rate of 0.9 mL/min and a column temperature of 30° C. UV-detection at 215 nm was used to assess the total peptide area.
Samples at pH 4.0 were prepared as described in Example 5 and subjected to the ThT assay as described above.
Samples at pH 6.5 were prepared as described in Example 5 and subjected to the ThT assay as described above.

SMILES | LagTime (h) at pH 6.5 [h]
CC[C@H](C)[C@@H]1NC(=O)[C@H](CCCNC(=N)N)NC(=O)[C@H](CC(=O)O)NC(=O)[C@H](CC(C)C)NC(=O)[C@@H]2CCCN2C(=O)[C@H](CC(C)C)NC(=O)CNC(=O)[C@H](Cc2ccccc2)NC(=O)[C@@H](NC(=O)CNC(=O)[C@H](CCC(N)=O)NC(=O)[C@H](CO)NC(=O)[C@H](CC(C)C)NC(=O)CNC(=O)[C@H](CCCCN)NC(=O)[C@H](CCCCN)NC(=O)[C@H](CCC(N)=O)NC(=O)[C@H](C)NC(=O)CNC(=O)[C@H](CCCCN)NC(=O)[C@H](Cc2ccc(O)cc2)NC(=O)[C@H](CCCCN)NC(=O)[C@H](CCCNC(=N)N)NC(=O)[C@H](C)NC(=O)[C@H](CCC(N)=O)NC(=O)[C@@H]2CCCN2C(=O)[C@H](Cc2c[nH]cn2)NC(=O)[C@H](CCC(=O)O)NC(=O)[C@H](CCC(N)=O)NC(=O)COCCOCCNC(=O)COCCOCCNC(=O)CC[C@H](NC(=O)CC[C@H](NC(=O)CC[C@H](NC(=O)CC[C@H](NC(=O)CC[C@H](NC(=O)CC[C@H](NC(=O)CCCCCCCCCCCCCCCCC(=O)O)C(=O)O)C(=O)O)C(=O)O)C(=O)O)C(=O)O)C(=O)O)CSSC[C@@H](C(=O)O)NC(=O)CNC(=O)[C@H](CC(C)C)NC(=O)CNC(=O)[C@H](CO)NC(=O)[C@H](CC(C)C)NC(=O)[C@H](CO)NC(=O)CNC1=O [compound 1402] ({C18 diacid-γGlu-γGlu-γGlu-γGlu-γGlu-γGlu-AEEA-AEEA}-QEHPQARKYKGAQKKGLSQGCFGLPLDRIGSLSGLGC-OH; disulfide 21-37) | 45
CC[C@H](C)[C@@H]1NC(=O)[C@H](CCCNC(=N)N)NC(=O)[C@H](CC(=O)O)NC(=O)[C@H](CC(C)C)NC(=O)[C@@H]2CCCN2C(=O)[C@H](CC(C)C)NC(=O)CNC(=O)[C@H](Cc2ccccc2)NC(=O)[C@@H](NC(=O)CNC(=O)[C@H](CCC(N)=O)NC(=O)[C@H](CO)NC(=O)[C@H](CC(C)C)NC(=O)CNC(=O)[C@H](CCCCN)NC(=O)[C@H](CCCCN)NC(=O)[C@H](CCC(N)=O)NC(=O)[C@H](C)NC(=O)CNC(=O)[C@H](CCCCN)NC(=O)[C@H](Cc2ccc(O)cc2)NC(=O)[C@H](CCCCN)NC(=O)[C@H](CCCNC(=N)N)NC(=O)[C@H](C)NC(=O)[C@H](CCC(N)=O)NC(=O)[C@@H]2CCCN2C(=O)[C@H](Cc2c[nH]cn2)NC(=O)[C@H](CCC(=O)O)NC(=O)[C@H](CCC(N)=O)NC(=O)COCCOCCNC(=O)COCCOCCNC(=O)COCCOCCNC(=O)COCCOCCNC(=O)CC[C@H](NC(=O)CC[C@H](NC(=O)CC[C@H](NC(=O)CC[C@H](NC(=O)CC[C@H](NC(=O)CC[C@H](NC(=O)CCCCCCCCCCCCCCCCC(=O)O)C(=O)O)C(=O)O)C(=O)O)C(=O)O)C(=O)O)C(=O)O)CSSC[C@@H](C(=O)O)NC(=O)CNC(=O)[C@H](CC(C)C)NC(=O)CNC(=O)[C@H](CO)NC(=O)[C@H](CC(C)C)NC(=O)[C@H](CO)NC(=O)CNC1=O [compound 1404] ({C18 diacid-γGlu-γGlu-γGlu-γGlu-γGlu-γGlu-AEEA-AEEA-AEEA-AEEA}-QEHPQARKYKGAQKKGLSQGCFGLPLDRIGSLSGLGC-OH; disulfide 21-37) | 45
CC[C@H](C)[C@@H]1NC(=O)[C@H](CCCNC(=N)N)NC(=O)[C@H](CC(=O)O)NC(=O)[C@H](CC(C)C)NC(=O)[C@@H]2CCCN2C(=O)[C@H](CC(C)C)NC(=O)CNC(=O)[C@H](Cc2ccccc2)NC(=O)[C@@H](NC(=O)CNC(=O)[C@H](CCC(N)=O)NC(=O)[C@H](CO)NC(=O)[C@H](CC(C)C)NC(=O)CNC(=O)[C@H](CCCCN)NC(=O)[C@H](CCCCN)NC(=O)[C@H](CCC(N)=O)NC(=O)[C@H](C)NC(=O)CNC(=O)[C@H](CCCCN)NC(=O)[C@H](Cc2ccc(O)cc2)NC(=O)[C@H](CCCCN)NC(=O)[C@H](CCCNC(=N)N)NC(=O)[C@H](C)NC(=O)[C@H](CCC(N)=O)NC(=O)[C@@H]2CCCN2C(=O)[C@H](Cc2c[nH]cn2)NC(=O)[C@H](CCC(=O)O)NC(=O)[C@H](CCC(N)=O)NC(=O)COCCOCCNC(=O)COCCOCCNC(=O)COCCOCCNC(=O)COCCOCCNC(=O)CC[C@H](NC(=O)CC[C@H](NC(=O)CC[C@H](NC(=O)CC[C@H](NC(=O)CC[C@H](NC(=O)CCCCCCCCCCCCCCCCC(=O)O)C(=O)O)C(=O)O)C(=O)O)C(=O)O)C(=O)O)CSSC[C@@H](C(=O)O)NC(=O)CNC(=O)[C@H](CC(C)C)NC(=O)CNC(=O)[C@H](CO)NC(=O)[C@H](CC(C)C)NC(=O)[C@H](CO)NC(=O)CNC1=O [compound 1406] ({C18 diacid-γGlu-γGlu-γGlu-γGlu-γGlu-AEEA-AEEA-AEEA-AEEA}-QEHPQARKYKGAQKKGLSQGCFGLPLDRIGSLSGLGC-OH; disulfide 21-37) | 45
CC[C@H](C)[C@@H]1NC(=O)[C@H](CCCNC(=N)N)NC(=O)[C@H](CC(=O)O)NC(=O)[C@H](CC(C)C)NC(=O)[C@@H]2CCCN2C(=O)[C@H](CC(C)C)NC(=O)CNC(=O)[C@H](Cc2ccccc2)NC(=O)[C@@H](NC(=O)CNC(=O)[C@H](CCC(N)=O)NC(=O)[C@H](CO)NC(=O)CNC(=O)CNC(=O)[C@H](CCCCN)NC(=O)[C@H](Cc2c[nH]cn2)NC(=O)[C@H](CCC(N)=O)NC(=O)[C@H](C)NC(=O)CNC(=O)[C@H](CCC(=O)O)NC(=O)[C@H](Cc2ccc(O)cc2)NC(=O)[C@H](CCCCN)NC(=O)[C@H](CCCNC(=N)N)NC(=O)[C@H](C)NC(=O)COCCOCCNC(=O)COCCOCCNC(=O)COCCOCCNC(=O)COCCOCCNC(=O)CC[C@H](NC(=O)CC[C@H](NC(=O)CCCCCCCCCCCCCCCCC(=O)O)C(=O)O)C(=O)O)CSSC[C@@H](C(=O)O)NC(=O)CNC(=O)[C@H](CC(C)C)NC(=O)CNC(=O)[C@H](CO)NC(=O)[C@H](CC(C)C)NC(=O)[C@H](CO)NC(=O)CNC1=O [compound 1432] ({C18 diacid-γGlu-γGlu-AEEA-AEEA-AEEA-AEEA}-ARKYEGAQHKGGSQGCFGLPLDRIGSLSGLGC-OH; disulfide 16-32) | 45

same assay, conditions: ThT, 37° C., shaking; assay terminated after 45 hours

SMILES | LagTime (h) at pH 4.0 [h]
CC[C@H](C)[C@@H]1NC(=O)[C@H](CCCNC(=N)N)NC(=O)[C@H](CC(=O)O)NC(=O)[C@H](CC(C)C)NC(=O)[C@@H]2CCCN2C(=O)[C@H](CC(C)C)NC(=O)CNC(=O)[C@H](Cc2ccccc2)NC(=O)[C@@H](NC(=O)CNC(=O)[C@H](CO)NC(=O)[C@H](CO)NC(=O)[C@@H](NC(=O)CNC(=O)[C@H](CCCCN)NC(=O)[C@H](CCCCN)NC(=O)[C@H](CCC(N)=O)NC(=O)[C@H](C)NC(=O)CNC(=O)[C@H](Cc2c[nH]cn2)NC(=O)[C@H](Cc2ccc(O)cc2)NC(=O)[C@H](CCCCN)NC(=O)[C@H](CCCNC(=N)N)NC(=O)[C@H](C)NC(=O)COCCOCCNC(=O)COCCOCCNC(=O)CC[C@H](NC(=O)CC[C@H](NC(=O)CC[C@H](NC(=O)CCCCCCCCCCCCCCCCC(=O)O)C(=O)O)C(=O)O)C(=O)O)C(C)C)CSSC[C@@H](C(=O)O)NC(=O)CNC(=O)[C@H](CC(C)C)NC(=O)CNC(=O)[C@H](CO)NC(=O)[C@H](CC(C)C)NC(=O)[C@H](CO)NC(=O)CNC1=O [compound 1422] ({C18 diacid-γGlu-γGlu-γGlu-AEEA-AEEA}-ARKYHGAQKKGVSSGCFGLPLDRIGSLSGLGC-OH; disulfide 16-32) | 45
CC[C@H](C)[C@@H]1NC(=O)[C@H](CCCNC(=N)N)NC(=O)[C@H](CC(=O)O)NC(=O)[C@H](CC(C)C)NC(=O)[C@@H]2CCCN2C(=O)[C@H](CC(C)C)NC(=O)CNC(=O)[C@H](Cc2ccccc2)NC(=O)[C@@H](NC(=O)CNC(=O)[C@H](CCC(N)=O)NC(=O)[C@H](CO)NC(=O)[C@H](CC(C)C)NC(=O)CNC(=O)[C@H](CO)NC(=O)[C@H](CCCCN)NC(=O)[C@H](CCC(N)=O)NC(=O)[C@H](C)NC(=O)CNC(=O)[C@H](Cc2c[nH]cn2)NC(=O)[C@H](Cc2ccc(O)cc2)NC(=O)[C@H](CCCCN)NC(=O)[C@H](CCCNC(=N)N)NC(=O)[C@H](C)NC(=O)COCCOCCNC(=O)COCCOCCNC(=O)CC[C@H](NC(=O)CC[C@H](NC(=O)CCCCCCCCCCCCCCCCc2nnn[nH]2)C(=O)O)C(=O)O)CSSC[C@@H](C(=O)O)NC(=O)CNC(=O)[C@H](CC(C)C)NC(=O)CNC(=O)[C@H](CO)NC(=O)[C@H](CC(C)C)NC(=O)[C@H](CO)NC(=O)CNC1=O [compound 1426] ({X1-γGlu-γGlu-AEEA-AEEA}-ARKYHGAQKSGLSQGCFGLPLDRIGSLSGLGC-OH; disulfide 16-32) | 0.33
